# Laboratory results: patent US8247211B2, “Glycopeptide antibiotics” (American Cyanamid Company, priority 2001, dated 2012)
# Experiments:
# [1] = test system: Staphylococcus aureus-SMITH (GC 4543); test: Acute lethal infection in mice (ED50); assay type: in vivo; settings: female CD-1 mice, intraperitoneal challenge, intravenous dose 30 min. after infection, 7 day survival ratios
# In short: (§1)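 Female CD-1 mice challenged intraperitoneally with a bacterial dose lethal to untreated controls within 24-48 h. Compound given intravenously in saline or 5% dextrose 30 min post-infection, five mice per dose; ED50 from 7-day survival pooled over 3 tests.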
# [2] = test system: Enterococcus faecalis (GC 2246), vancomycin resistant strain; test: Acute lethal infection in mice (ED50); assay type: in vivo; settings: female CD-1 mice, intraperitoneal challenge, intravenous dose 30 min. after infection, 7 day survival ratios
# In short: as §1
# Staphylococcus sp. = test: In vitro antibacterial evaluation: minimum inhibitory concentration (MIC), broth dilution method; assay type: cell-based
# In short: (§2)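 Susceptibility determined by NCCLS-recommended broth dilution (M7-A2), Muller-Hinton II […]. Concentration span 64-0.06 μg/mL, inoculum 5×10^5 CFU/mL. Isolates include strains resistant to methicillin, penicillin and/or vancomycin.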
# Enterococcus sp. = test: as above; assay type: cell-based
# In short: as §2
# Escherichia coli = test: as above; assay type: cell-based; settings: strain ATCC 25922
# In short: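 First, organisms are seeded at 5×10^5 CFU/mL into Muller-Hinton II […]. Next, antibiotic is applied across 64-0.06 μg/mL by broth dilution (NCCLS M7-A2). Finally, the lowest inhibitory concentration is recorded as MIC.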
# Streptococcus sp. = test: as above; assay type: cell-based
# In short: as §2
# [3] = broth dilution, 18 hours at 35° C.
smiles,measurement,setting,value
"CC(c1ccccc1)C1NC(=O)CNC(=O)C(CO)NC(=O)C(C(O)C2CNC(=N)N2C2OC(CO)C(O)C(O)C2O)NC(=O)C(C(O)C2CNC(=N)N2)NC(=O)C(Cc2ccc(OC3OC(CO)C(OC4OC(COC(=O)C(c5ccccc5)c5ccccc5)C(O)C(O)C4O)C(O)C3O)cc2)NC1=O (stereo not drawn) [Example 96c, Cyclo[glycyl-β-methylphenylalanyl-O-[4-O-[6-O-(diphenylacetyl)hexopyranosyl)hexopyranosyl]tyrosyl-3-(2-iminoimidazolidin-4-yl)seryl-3-(3-hexopyranosyl-2-iminoimidazolidin-4-yl)serylseryl]]","median effective dose (ED50), Staphylococcus aureus-SMITH (GC 4543)",[1],0.29 mg/kg
same,"median effective dose (ED50), Enterococcus faecalis (GC 2246)",[2],5.2 mg/kg
same,MIC Staphylococcus aureus (ATCC 29213),Staphylococcus sp.; [3],1 µg/mL
same,MIC Staphylococcus aureus (GC 1131),Staphylococcus sp.; [3],0.5 µg/mL
same,MIC Staphylococcus aureus (GC 4541),Staphylococcus sp.; [3],0.5 µg/mL
same,MIC Staphylococcus aureus (GC 4542),Staphylococcus sp.; [3],1 µg/mL
same,MIC Staphylococcus aureus (GC 4544),Staphylococcus sp.; [3],1 µg/mL
same,MIC Staphylococcus aureus (GC 4545),Staphylococcus sp.; [3],0.5 µg/mL
same,MIC Staphylococcus aureus-SMITH (GC 4543),"Staphylococcus sp.; strain GC 4543, 18 hours at 35° C.",0.5 µg/mL
same,MIC Staphylococcus haemolyticus (GC 4546),Staphylococcus sp.; strain GC 4546,0.5 µg/mL
same,MIC Coagulase Negative Staphylococcus (GC 4547),Staphylococcus sp.; strain GC 4547,1 µg/mL
same,MIC Coagulase Negative Staphylococcus (GC 4548),Staphylococcus sp.; strain GC 4548,0.25 µg/mL
same,MIC Coagulase Negative Staphylococcus (GC 4549),Staphylococcus sp.; strain GC 4549,1 µg/mL
same,MIC Coagulase Negative Staphylococcus (GC 4551),Staphylococcus sp.; strain GC 4551,1 µg/mL
same,MIC Coagulase Negative Staphylococcus (ID-3941),Staphylococcus sp.; strain ID-3941,0.5 µg/mL
same,MIC Staphylococcus aureus-SMITH (GC 4543),"Staphylococcus sp.; strain SMITH GC 4543, broth dilution, 18 hours at 35° C.",0.5 µg/mL
same,MIC Enterococcus faecalis (GC 2242),"Enterococcus sp.; Enterococcus faecalis (GC 2242), broth dilution, 18 hours at 35° C.",1 µg/mL
same,MIC Enterococcus faecalis (ATCC 29212),Enterococcus sp.; strain ATCC 29212,2 µg/mL
same,MIC Enterococcus faecalis (GC 2242),Enterococcus sp.; strain GC 2242,1 µg/mL
same,MIC Enterococcus faecium (GC 2243),Enterococcus sp.; strain GC 2243,2 µg/mL
same,MIC Enterococcus faecalis (GC 4552),Enterococcus sp.; strain GC 4552,2 µg/mL
same,MIC Enterococcus faecalis (GC 4553),Enterococcus sp.; strain GC 4553,2 µg/mL
same,MIC Enterococcus faecalis (GC 4554),Enterococcus sp.; strain GC 4554,2 µg/mL
same,MIC Enterococcus faecium (GC 4556),Enterococcus sp.; strain GC 4556,2 µg/mL
same,MIC Enterococcus faecium (GC 4557),Enterococcus sp.; strain GC 4557,1 µg/mL
same,MIC Enterococcus avium (GC 4558),Enterococcus sp.; strain GC 4558,2 µg/mL
same,MIC Escherichia coli (ATCC 25922),Escherichia coli,64 µg/mL
same,MIC Streptococcus agalactiae (GC 4564),"Streptococcus sp.; Streptococcus agalactiae (GC 4564), broth dilution, 18 hours at 35° C.",<0.06 µg/mL
same,MIC Streptococcus pneumoniae (GC 4565),"Streptococcus sp.; Streptococcus pneumoniae (GC 4565), broth dilution, 18 hours at 35° C.",<0.06 µg/mL
same,MIC Streptococcus pyogenes (ID-3187),"Streptococcus sp.; Streptococcus pyogenes (ID-3187), broth dilution, 18 hours at 35° C.",<0.06 µg/mL
same,MIC Streptococcus agalactiae (GC 4564),Streptococcus sp.; strain GC 4564,<0.06 µg/mL
same,MIC Streptococcus pneumoniae (GC 4565),Streptococcus sp.; strain GC 4565,<0.06 µg/mL
same,MIC Streptococcus pyogenes (ID-3187),Streptococcus sp.; strain ID-3187,<0.06 µg/mL
